How the values were obtained:
[1] = target: KRas G12C (Homo sapiens, UniProt P01116, C118S/C51S/C80L/G12C); assay: KRas G12C Modification Assay (LCMS detection of covalent adduct); format: binding; settings: normalized percent of control; 5 μM concentration for 3 hours
Outline: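 Intact protein analysed by LC/MS with deconvolution; unmodified protein signal normalized to no-compound control and reported as percent of control (POC).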

[2] = target: KRas G12C (Homo sapiens, UniProt P01116, G12C); assay: Cellular inhibition of KRas G12C measured by Phospho-ERK in NCI-H358 cells; format: cell-based; settings: pERK(Thr202/Tyr204) normalized with GAPDH, NCI-H358 cells, 3 hours; read-out: IC50
Outline: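 NCI-H358 cells were allowed to attach for 8-12 hours, then exposed to compounds for 3 hours at 0.5% DMSO final. After formaldehyde fixation and methanol permeabilization, phospho-ERK (Thr202/Tyr204) was detected by in-cell immunofluorescence and normalized to GAPDH; IC50 came from a 4-parameter fit of percent-of-DMSO values.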

| SMILES | POC [1] | IC50 [2] [nM] |
| --- | --- | --- |
| C=CC(=O)N1CCN(c2nc(OC[C@@H]3CCCN3C(C)C)nc3c2CCN(c2cccc4ccccc24)C3)CC1CC#N (stereo partly drawn) [Example 252, 2-[4-[2-[[(2S)-1-isopropylpyrrolidin-2-yl]methoxy]-7-(1-naphthyl)-6,8-dihydro-5H-pyrido[3,4-d]pyrimidin-4-yl]-1-prop-2-enoyl-piperazin-2-yl]acetonitrile] | C (“C”>50% POC) | 0.1 to 1000 |
| C=C(F)C(=O)N1CCN(c2nc(OC[C@H]3C[C@@H](F)CN3C)nc3c2CCN(c2cccc4cccc(Cl)c24)C3)C[C@@H]1CC#N [Example 558, 2-((S)-4-(7-(8-Chloronaphthalen-1-yl)-2-(((2R,4R)-4-fluoro-1-methylpyrrolidin-2-yl)methoxy)-5,6,7,8-tetrahydropyrido[3,4-d]pyrimidin-4-yl)-1-(2-fluoroacryloyl)piperazin-2-yl)acetonitrile] | C (“C”>50% POC) | 0.1 to 1000 |
| C=C(F)C(=O)N1CCN(c2nc(OC[C@@H]3CCCN3C)nc3c2CCN(c2cccc4cccc(CO)c24)C3)C[C@@H]1CC#N [Example 567, 2-[(2S)-1-(2-Fluoroprop-2-enoyl)-4-[7-[8-(hydroxymethyl)-1-naphthyl]-2-[[(2S)-1-methylpyrrolidin-2-yl]methoxy]-6,8-dihydro-5H-pyrido[3,4-d]pyrimidin-4-yl]piperazin-2-yl]acetonitrile] | C (“C”>50% POC) | > 1000 |
| C=CC(=O)N1CCN(c2nc(OCCCN3C[C@@H](F)[C@@H](F)C3)nc3c2CCN(c2cc(O)cc4ccccc24)C3)CC1 [Example 208, 1-(4-(2-(3-((3R,4S)-3,4-difluoropyrrolidin-1-yl)propoxy)-7-(3-hydroxynaphthalen-1-yl)-5,6,7,8-tetrahydropyrido[3,4-d]pyrimidin-4-yl)piperazin-1-yl)prop-2-en-1-one] | C (“C”>50% POC) | > 1000 |
| C=C(F)C(=O)N1CCN(c2nc(OC[C@@H]3CCCN3C)nc3c2CCN(c2cncc(Cl)c2C(F)(F)F)C3)C[C@@H]1CC#N [Example 600, 2-((S)-4-(7-(5-Chloro-4-(trifluoromethyl)pyridin-3-yl)-2-(((S)-1-methylpyrrolidin-2-yl)methoxy)-5,6,7,8-tetrahydropyrido[3,4-d]pyrimidin-4-yl)-1-(2-fluoroacryloyl)piperazin-2-yl)acetonitrile] | C (“C”>50% POC) | 0.1 to 1000 |
| C=CC(=O)N1CCN(c2nc(OC[C@@H]3CCCN3C)nc3c2CCN(c2c(F)c(O)cc4ccccc24)C3)CC1 [Example 249, 1-[4-[7-(2-fluoro-3-hydroxy-1-naphthyl)-2-[[(2S)-1-methylpyrrolidin-2-yl]methoxy]-6,8-dihydro-5H-pyrido[3,4-d]pyrimidin-4-yl]piperazin-1-yl]prop-2-en-1-one] | C (“C”>50% POC) | 0.1 to 1000 |
| C=CC(=O)N1CCN(c2nc(O[C@H](C)CN(C)CC)nc3c2CCN(c2cc(O)cc4ccccc24)C3)CC1 [Example 131, 1-[4-[2-[(1R)-2-[ethyl(methyl)amino]-1-methyl-ethoxy]-7-(3-hydroxy-1-naphthyl)-6,8-dihydro-5H-pyrido[3,4-d]pyrimidin-4-yl]piperazin-1-yl]prop-2-en-1-one] | C (“C”>50% POC) | 0.1 to 1000 |
| C=C(F)C(=O)N1CCN(c2nc(OC[C@@H]3CCCN3C)nc3c2CCN(c2nccc4cccc(Br)c24)C3)C[C@@H]1CC#N [Example 594, 2-((S)-4-(7-(8-Bromoisoquinolin-1-yl)-2-(((S)-1-methylpyrrolidin-2-yl)methoxy)-5,6,7,8-tetrahydropyrido[3,4-d]pyrimidin-4-yl)-1-(2-fluoroacryloyl)piperazin-2-yl)acetonitrile] | A (“A”≤25% POC) | > 1000 |
| CC#CC(=O)N1CCN(c2nc(OC[C@@H]3CCCN3C)nc3c2CCN(c2cccc4ccccc24)C3)CC1CC#N (stereo partly drawn) [Example 242, 2-(1-(but-2-ynoyl)-4-(2-(((S)-1-methylpyrrolidin-2-yl)methoxy)-7-(naphthalen-1-yl)-5,6,7,8-tetrahydropyrido[3,4-d]pyrimidin-4-yl)piperazin-2-yl)acetonitrile] | C (“C”>50% POC) | 0.1 to 1000 |
